Patent publication US9320276B2, “N-hetarylmethyl pyrazolylcarboxamides” (BAYER INTELLECTUAL PROPERTY GMBH, priority 2010, dated 2016)

Test system: not listed separately
Assay: logP by HPLC on reversed-phase column (EEC Directive 79/831 Annex V.A8)
Format: physicochemical
Settings: HPLC on reversed-phase column (C 18), 40° C., 0.1% aqueous formic acid and acetonitrile, linear gradient 10% to 90% acetonitrile
Description: In table 1, the logP values were determined in accordance with EEC Directive 79/831 Annex V.A8 by HPLC (High Performance Liquid Chromatography) on a reversed-phase column (C 18), using the method described below: Temperature: 40° C.; Mobile phases: 0.1% aqueous formic acid and acetonitrile; linear gradient from 10% acetonitrile to 90% acetonitrile. Calibration was carried out using unbranched alkan-2-ones (comprising 3 to 16 carbon atoms) with known logP values (determination of the logP values by the retention times using linear interpolation between two successive alkanones). lambda-max-values were determined using UV-spectra from 200 nm to 400 nm and the peak values of the chromatographic signals.

logP | Structure (SMILES)
1.87 | CN(Cc1ccco1)C(=O)c1c(C(F)F)nn(C)c1F [Example 1]
2.82 | CC(C1CC1)N(Cc1ccco1)C(=O)c1c(C(F)F)nn(C)c1F (stereo not shown) [Example 3]
2.45 | Cn1nc(C(F)F)c(C(=O)N(Cc2ccco2)C2CC2)c1Cl [Example 4]
2.02 | CN(Cc1ccco1)C(=O)c1c(C(F)F)nn(C)c1Cl [Example 6]
3.35 | Cn1nc(C(F)F)c(C(=O)N(Cc2ccco2)C2CCCCC2)c1Cl [Example 7]
3.21 | Cn1nc(C(F)F)c(C(=O)N(Cc2ccco2)C2CCCCC2)c1F [Example 8]
1.86 | Cn1nc(C(F)F)c(C(=O)NCc2ccco2)c1Cl [Example 9]
1.66 | Cn1nc(C(F)F)c(C(=O)NCc2ccco2)c1F [Example 10]
2.86 | Cn1nc(C(F)F)c(C(=O)NC2(c3ccco3)CCCC2)c1Cl [Example 11]
2.70 | Cn1nc(C(F)F)c(C(=O)NC2(c3ccco3)CCCC2)c1F [Example 12]
1.37 | Cn1nc(C(F)F)c(C(=O)N(Cc2cccnc2)CC(F)(F)F)c1Cl [Example 13]
1.20 | Cn1nc(C(F)F)c(C(=O)N(Cc2cccnc2)CC(F)(F)F)c1F [Example 14]
1.76 | Cn1nc(C(F)F)c(C(=O)N(Cc2cccnc2)C2CCCCCC2)c1Cl [Example 15]
1.66 | Cn1nc(C(F)F)c(C(=O)N(Cc2cccnc2)C2CCCCCC2)c1F [Example 16]
1.76 | CC(C)C(c1cncnc1)N(C)C(=O)c1c(C(F)F)nn(C)c1Cl (stereo not shown) [Example 19]
1.65 | CC(C)C(c1cncnc1)N(C)C(=O)c1c(C(F)F)nn(C)c1F (stereo not shown) [Example 20]
2.32 | Cc1ccoc1CN(C)C(=O)c1c(C(F)F)nn(C)c1Cl [Example 21]
2.18 | Cc1ccoc1CN(C)C(=O)c1c(C(F)F)nn(C)c1F [Example 22]
3.11 | Cc1occc1C1(NC(=O)c2c(C(F)F)nn(C)c2Cl)CCCC1 [Example 23]
2.92 | Cc1occc1C1(NC(=O)c2c(C(F)F)nn(C)c2F)CCCC1 [Example 24]
1.93 | Cn1ccc(C2(NC(=O)c3c(C(F)F)nn(C)c3Cl)CCCC2)n1 [Example 25]
2.25 | Cn1ccc(C2(NC(=O)c3c(C(F)F)nn(C)c3F)CCCC2)n1 [Example 26]
2.20 | CCN(Cc1nonc1C)C(=O)c1c(C(F)F)nn(C)c1Cl [Example 27]
2.90 | CCCN(Cc1cccs1)C(=O)c1c(C(F)F)nn(C)c1Cl [Example 29]
2.77 | CCCN(Cc1cccs1)C(=O)c1c(C(F)F)nn(C)c1F [Example 30]
2.73 | Cn1nc(C(F)F)c(C(=O)N(Cc2cccs2)C2CC2)c1Cl [Example 31]

logP | Structure (SMILES)
3.13 | Cn1nc(C(F)F)c(C(=O)NC2(c3cccs3)CCCC2)c1Cl [Example 33]
3.21 | Cc1cc(C(C)N(C(=O)c2c(C(F)F)nn(C)c2F)C2CC2)c(C)o1 (stereo not shown) [Example 35]
3.37 | Cc1cc(C(C)N(C(=O)c2c(C(F)F)nn(C)c2Cl)C2CC2)c(C)o1 (stereo not shown) [Example 36]
3.46 | Cc1ccsc1CN(C(=O)c1c(C(F)F)nn(C)c1F)C1CCCC1 [Example 38]
2.58 | Cc1ccsc1CN(C)C(=O)c1c(C(F)F)nn(C)c1Cl [Example 41]
2.20 | C=CCN(Cc1csc(C)n1)C(=O)c1c(C(F)F)nn(C)c1Cl [Example 43]
2.07 | C=CCN(Cc1csc(C)n1)C(=O)c1c(C(F)F)nn(C)c1F [Example 44]
1.69 | CCN(Cc1cn(CC)nc1C)C(=O)c1c(C(F)F)nn(C)c1F [Example 45]
1.79 | CCN(Cc1cn(CC)nc1C)C(=O)c1c(C(F)F)nn(C)c1Cl [Example 46]
1.31 | CCn1cc(CNC(=O)c2c(C(F)F)nn(C)c2F)c(C)n1 [Example 47]
1.87 | CN(Cc1cccnc1Cl)C(=O)c1c(C(F)F)nn(C)c1Cl [Example 51]
1.72 | CN(Cc1cccnc1Cl)C(=O)c1c(C(F)F)nn(C)c1F [Example 52]
1.91 | CN(Cc1ccnc(Cl)c1)C(=O)c1c(C(F)F)nn(C)c1Cl [Example 53]
1.76 | CN(Cc1ccnc(Cl)c1)C(=O)c1c(C(F)F)nn(C)c1F [Example 54]
1.90 | CN(Cc1cncc(Cl)c1)C(=O)c1c(C(F)F)nn(C)c1Cl [Example 55]
1.76 | CN(Cc1cncc(Cl)c1)C(=O)c1c(C(F)F)nn(C)c1F [Example 56]
2.80 | Cn1nc(C(F)F)c(C(=O)N(Cc2ccc(Cl)nc2)C2CCCC2)c1F [Example 57]
2.15 | COCCN(Cc1ccc(Cl)nc1)C(=O)c1c(C(F)F)nn(C)c1Cl [Example 58]
2.02 | COCCN(Cc1ccc(Cl)nc1)C(=O)c1c(C(F)F)nn(C)c1F [Example 59]
2.23 | CCN(Cc1ccc(Cl)nc1)C(=O)c1c(C(F)F)nn(C)c1Cl [Example 60]
2.10 | CCN(Cc1ccc(Cl)nc1)C(=O)c1c(C(F)F)nn(C)c1F [Example 61]
1.98 | CN(Cc1ccc(Cl)nc1)C(=O)c1c(C(F)F)nn(C)c1Cl [Example 62]
1.84 | CN(Cc1ccc(Cl)nc1)C(=O)c1c(C(F)F)nn(C)c1F [Example 63]
2.49 | CC(C)N(Cc1ccc(Cl)nc1)C(=O)c1c(C(F)F)nn(C)c1Cl [Example 64]
2.33 | CC(C)N(Cc1ccc(Cl)nc1)C(=O)c1c(C(F)F)nn(C)c1F [Example 65]
2.39 | Cn1nc(C(F)F)c(C(=O)N(Cc2ccc(Cl)nc2)C2CC2)c1Cl [Example 66]

logP | Structure (SMILES)
2.94 | Cn1nc(C(F)F)c(C(=O)N(Cc2ccc(Cl)nc2)C2CCCC2)c1Cl [Example 68]
1.82 | Cn1nc(C(F)F)c(C(=O)NCc2ccc(Cl)nc2)c1Cl [Example 69]
3.70 | Cn1nc(C(F)F)c(C(=O)NC2(c3cc4ccccc4o3)CCCC2)c1Cl [Example 74]
2.21 | CCN(Cc1cnc(Cl)s1)C(=O)c1c(C(F)F)nn(C)c1F [Example 76]
2.35 | CCN(Cc1cnc(Cl)s1)C(=O)c1c(C(F)F)nn(C)c1Cl [Example 77]
1.82 | CCN(Cc1c(C)nn(CC)c1C)C(=O)c1c(C(F)F)nn(C)c1Cl [Example 78]
1.72 | CCN(Cc1c(C)nn(CC)c1C)C(=O)c1c(C(F)F)nn(C)c1F [Example 79]
2.75 | Cn1nc(C(F)F)c(C(=O)NCc2cc3ccccc3s2)c1F [Example 84]
2.90 | Cn1nc(C(F)F)c(C(=O)NCc2csc3ccccc23)c1Cl [Example 87]
2.80 | Cn1nc(C(F)F)c(C(=O)N(Cc2nc3ccccc3s2)C2CC2)c1Cl [Example 97]
2.32 | CN(Cc1ccc2nsnc2c1)C(=O)c1c(C(F)F)nn(C)c1Cl [Example 99]
2.59 | CC(C)Oc1ccc(CN(C)C(=O)c2c(C(F)F)nn(C)c2Cl)cn1 [Example 101]
2.71 | CN(Cc1nc(-c2ccccc2)no1)C(=O)c1c(C(F)F)nn(C)c1Cl [Example 113]
2.90 | Cn1nc(C(F)F)c(C(=O)N(Cc2cnc(Cl)cc2Cl)C2CC2)c1Cl [Example 119]
2.59 | Cc1onc(-c2ccccc2)c1CN(C)C(=O)c1c(C(F)F)nn(C)c1Cl [Example 129]
2.44 | Cc1onc(-c2ccccc2)c1CN(C)C(=O)c1c(C(F)F)nn(C)c1F [Example 130]
2.70 | CN(Cc1cscc1Br)C(=O)c1c(C(F)F)nn(C)c1Cl [Example 134]
3.11 | Cn1nc(C(F)F)c(C(=O)N(Cc2sccc2Br)C2CC2)c1F [Example 135]
3.29 | Cn1nc(C(F)F)c(C(=O)N(Cc2sccc2Br)C2CC2)c1Cl [Example 136]
3.63 | CN(Cc1sc2ccccc2c1Cl)C(=O)c1c(C(F)F)nn(C)c1Cl [Example 141]
3.94 | Cc1cc(CN(C(=O)c2c(C(F)F)nn(C)c2Cl)C2CC2)c(C)n1-c1ccccc1 [Example 146]
2.90 | Cc1nc(-c2ccccc2)sc1CN(C)C(=O)c1c(C(F)F)nn(C)c1Cl [Example 148]
3.25 | CC(C)N(Cc1cnn(-c2ccc(Cl)cc2)c1)C(=O)c1c(C(F)F)nn(C)c1F [Example 150]
3.04 | CN(Cc1cc(-c2ccc(Cl)cc2)no1)C(=O)c1c(C(F)F)nn(C)c1F [Example 152]
3.59 | CSc1ncc(C(C(C)C)N(C)C(=O)c2c(C(F)F)nn(C)c2Cl)c(C(F)(F)F)n1 (stereo not shown) [Example 158]

Structure (SMILES) | logP
CC(C1CC1)N(Cc1ccco1)C(=O)c1c(C(F)F)nn(C)c1Cl (stereo not shown) [Example 2] | 2.98
Cn1nc(C(F)F)c(C(=O)NC2(c3cccnc3)CCCC2)c1Cl [Example 17] | 0.96
Cn1nc(C(F)F)c(C(=O)NC2(c3cccnc3)CCCC2)c1F [Example 18] | 0.84

Test system: Pyrenophora teres
Assay: in vivo preventive test on Pyrenophora teres (barley)
Settings: 500 ppm of active ingredient, evaluated 7-9 days after inoculation
Description: Solvent: 49 parts by weight of N,N-dimethylformamide Emulsifier: 1 part by weight of alkylaryl polyglycol ether To produce a suitable preparation of active compound, 1 part by weight of active compound is mixed with the stated amounts of solvent and emulsifier, and the concentrate is diluted with water to the desired concentration. To test for preventive activity, young plants are sprayed with the preparation of active compound at the stated rate of application. One day after this treatment, the plants are inoculated with an aqueous spore suspension of Pyrenophora teres. The plants remain for 48 hours in an incubation cabinet at 22° C. and a relative atmospheric humidity of 100%. Then the plants are placed in a greenhouse at a temperature of approximately 20° C. and a relative atmospheric humidity of approximately 80%. The test is evaluated 7-9 days after the inoculation. 0% means an efficacy which corresponds to that of the untreated control while an efficacy of 100% means that no disease is observed.

Structure (SMILES) | Efficacy
Cn1nc(C(F)F)c(C(=O)N(Cc2cccnc2)C2CCCCCC2)c1Cl [Example 15] | 75%
Cc1ccoc1CN(C)C(=O)c1c(C(F)F)nn(C)c1Cl [Example 21] | 80%
Cc1occc1C1(NC(=O)c2c(C(F)F)nn(C)c2Cl)CCCC1 [Example 23] | 100%
Cn1nc(C(F)F)c(C(=O)N(Cc2cccs2)C2CC2)c1Cl [Example 31] | 100%
Cc1cc(C(C)N(C(=O)c2c(C(F)F)nn(C)c2F)C2CC2)c(C)o1 (stereo not shown) [Example 35] | 100%
